system: parasites (ring stage, in human red blood cell culture); experiment: Parasite LDH growth assay (antiparasite potency, Parasite Assay); assay type: cell-based, Plasmodium falciparum; conditions: 0.7% rings, 2% haematocrit, 72 hours at 37° C., LDH readout of parasite growth
Method in brief: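 Ring-stage parasites at 0.7% parasitemia and 2% haematocrit, in RPMI-Hepes/bicarbonate with 5% heat-inactivated human serum and 0.5% albumax, were added to compound-containing medium. Cultures grew 72 h at 37 °C in gassed humidified boxes. Plates were then frozen overnight at −80 °C, thawed 4 h, and growth was measured by LDH assay.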

Compound	EC50 [nM]
CCC1(CC)CC(=O)N([C@H]2c3cc(C(=O)N[C@@H]4c5ccccc5OC(C)(C)[C@H]4O)ccc3OCC2OC)C(=N)N1 (stereo partly drawn) [Example 67B, (3R,4S)-4-(4,4-diethyl-2-imino-6-oxotetrahydropyrimidin-1(2H)-yl)-N-((3S,4R)-3-hydroxy-2,2-dimethylchroman-4-yl)-3-methoxychromane-6-carboxamide]	0.8
CCC1(CC)CC(=O)N([C@H]2c3cc(C(=O)N[C@@H]4c5ccccc5C[C@H]4O)ccc3OC[C@@H]2OC)C(=N)N1 [Example 69A, (3R,4S)-4-(4,4-diethyl-2-imino-6-oxotetrahydropyrimidin-1(2H)-yl)-N-((1R,2R)-2-hydroxy-2,3-dihydro-1H-inden-1-yl)-3-methoxychromane-6-carboxamide]	2.6
CCC1(CC)CC(=O)N([C@@H]2CCS(=O)(=O)c3ccc(C(=O)N[C@H]4CC(C)(C)Oc5ccccc54)cc32)C(=N)N1 [Example 70A, (R)-4-(4,4-diethyl-2-imino-6-oxotetrahydropyrimidin-1(2H)-yl)-N-((S)-2,2-dimethylchroman-4-yl)thiochromane-6-carboxamide 1,1-dioxide]	9.3
CCC1(CC)CC(=O)N([C@H]2c3cc(C(=O)N[C@@H]4c5ccccc5C[C@H]4O)ccc3OCC2OC)C(=N)N1 (stereo partly drawn) [Example 72A, (3R,4S)-4-(4,4-diethyl-2-imino-6-oxotetrahydropyrimidin-1(2H)-yl)-N-((lR,2R)-2-hydroxy-2,3-dihydro-1H-inden-1-yl)-3-methoxychromane-6-carboxamide]	0.5
CCC1(CC)CC(=O)N([C@H]2c3cc(C(=O)NC4c5ccccc5CC4(C)O)ccc3OC2(C)COC)C(=N)N1 (stereo partly drawn) [Example 76A, (2S,3S)-3-(4,4-diethyl-2-imino-6-oxotetrahydropyrimidin-1(2H)-yl)-N-(2-hydroxy-2-methyl-2,3-dihydro-1H-inden-1-yl)-2-(methoxymethyl)-2-methyl-2,3-dihydrobenzofuran-5-carboxamide]	8.5
CCC1(CC)CC(=O)N([C@H]2c3cc(C(=O)NC4c5ccccc5CC4(C)O)ccc3OC2(C)COC)C(=N)N1 (stereo partly drawn) [Example 76B, (2S,3S)-3-(4,4-diethyl-2-imino-6-oxotetrahydropyrimidin-1(2H)-yl)-N-(2-hydroxy-2-methyl-2,3-dihydro-1H-inden-1-yl)-2-(methoxymethyl)-2-methyl-2,3-dihydrobenzofuran-5-carboxamide]	1.1
CCC1(CC)CC(=O)N([C@H]2c3cc(C(=O)NC4c5ccccc5CC4(C)O)ccc3OC2(C)COC)C(=N)N1 (stereo partly drawn) [Example 77A, (2S,3S)-3-(4,4-diethyl-2-imino-6-oxotetrahydropyrimidin-1(2H)-yl)-N-(2-hydroxy-2-methyl-2,3-dihydro-1H-inden-1-yl)-2-(methoxymethyl)-2-methyl-2,3-dihydrobenzofuran-5-carboxamide]	57.1
CCC1(CC)CC(=O)N([C@H]2c3cc(C(=O)NC4c5ccccc5CC4(C)O)ccc3OC2(C)COC)C(=N)N1 (stereo partly drawn) [Example 77B, (2S,3S)-3-(4,4-diethyl-2-imino-6-oxotetrahydropyrimidin-1(2H)-yl)-N-(2-hydroxy-2-methyl-2,3-dihydro-1H-inden-1-yl)-2-(methoxymethyl)-2-methyl-2,3-dihydrobenzofuran-5-carboxamide]	21.4

same assay, conditions: Plasmodium falciparum, Erythrocyte, 72 h, 0.7% rings, 2% haematocrit, 72 hours at 37° C., LDH readout of parasite growth

Compound	EC50 [nM]
CCC1(CC)CC(=O)N([C@H]2c3cc(C(=O)N[C@H]4CC(C)(C)Oc5ccccc54)ccc3OCC2OC)C(=N)N1 (stereo partly drawn) [Example 68A, (3R,4S)-4-(4,4-diethyl-2-imino-6-oxotetrahydropyrimidin-1(2H)-dimethylchroman-4-yl)-3-methoxychromane-6-carboxamide]	1
CCC1(CC)CC(=O)N([C@@H]2CCS(=O)(=O)c3ccc(C(=O)N[C@@H]4c5ccccc5OC(C)(C)[C@H]4O)cc32)C(=N)N1 [Example 71A, (R)-4-(4,4-diethyl-2-imino-6-oxotetrahydropyrimidin-1(2H)-yl)-N-((3S,4R)-3-hydroxy-2,2-dimethylchroman-4-yl)thiochromane-6-carboxamide 1,1-dioxide]	3.5
CCC1(CC)CC(=O)N([C@H]2c3cc(C(=O)N[C@@H]4c5ccccc5C[C@H]4O)ccc3O[C@@]2(C)COC)C(=N)N1 [Example 75A, (2R,3S)-3-(4,4-diethyl-2-imino-6-oxotetrahydropyrimidin-1(2H)-yl)-N-((1R,2R)-2-hydroxy-2,3-dihydro-1H-inden-1-yl)-2-(methoxymethyl)-2-methyl-2,3-dihydrobenzofuran-5-carboxamide]	0.4
CCC1(CC)CC(=O)N([C@H]2c3cc(C(=O)N[C@@H]4c5ccccc5C[C@H]4O)ccc3O[C@]2(C)COC)C(=N)N1 [Example 75B, (2S,3S)-3-(4,4-diethyl-2-imino-6-oxotetrahydropyrimidin-1(2H)-yl)-N-((1R,2R)-2-hydroxy-2,3-dihydro-1H-inden-1-yl)-2-(methoxymethyl)-2-methyl-2,3-dihydrobenzofuran-5-carboxamide]	9.5
CC1(C)CC(=O)N([C@@H]2CCc3ccc(C(=O)N[C@@H]4c5ccccc5C[C@H]4O)cc32)C(=N)N1 [Example 78, (3R)-N-[(1R,2R)-2-hydroxyindan-1-yl]-3-(2-imino-4,4-dimethyl-6-oxo-hexahydropyrimidin-1-yl)indane-5-carboxamide]	8.9
CC1(C)CC(=O)N([C@@H]2CCc3ccc(C(=O)N[C@@H]4c5ccccc5C[C@]4(C)O)cc32)C(=N)N1 [Example 79, (3R)-N-[(1R,2S)-2-hydroxy-2-methyl-indan-1-yl]-3-(2-imino-4,4-dimethyl-6-oxo-hexahydropyrimidin-1-yl)indane-5-carboxamide]	9.6
CC1(C)CC(=O)N([C@@H]2CCc3ccc(C(=O)N[C@@H]4c5ccccc5C[C@@]4(C)O)cc32)C(=N)N1 [Example 80, (3R)-N-[(1R,2R)-2-hydroxy-2-methyl-indan-1-yl]-3-(2-imino-4,4-dimethyl-6-oxo-hexahydropyrimidin-1-yl)indane-5-carboxamide]	18
CC[C@]1(C)CC(=O)N([C@@H]2CCc3ccc(C(=O)N[C@@H]4c5ccccc5C[C@H]4O)cc32)C(=N)N1 [Example 81, (3R)-3-[(4R)-4-ethyl-2-imino-4-methyl-6-oxo-hexahydropyrimidin-1-yl]-N-[(1R,2R)-2-hydroxyindan-1-yl]indane-5-carboxamide]	6.6
C[C@@H]1C[C@@H](N2C(=N)NC(C)(C)CC2=O)c2cc(C(=O)N[C@@H]3c4ccccc4C[C@H]3O)ccc21 [Example 82, (1R,3R)-N-[(1R,2R)-2-hydroxyindan-1-yl]-3-(2-imino-4,4-dimethyl-6-oxo-hexahydropyrimidin-1-yl)-1-methyl-indane-5-carboxamide]	15.5
CCC1(CC)CC(=O)N([C@@H]2Cc3ccc(C(=O)N[C@@H]4c5ccccc5C[C@H]4O)cc32)C(=N)N1 [Example 83, (8R)-8-(4,4-diethyl-2-imino-6-oxo-hexahydropyrimidin-1-yl)-N-[(1R,2R)-2-hydroxyindan-1-yl]bicyclo[4.2.0]octa-1(6),2,4-triene-3-carboxamide]	20
CC1(C)CC(=O)N([C@@H]2CCc3ccc(C(=O)N[C@H]4CC(C)(C)Oc5ccccc54)cc32)C(=N)N1 [Example 84, (3R)-N-[(4S)-2,2-dimethylchroman-4-yl]-3-(2-imino-4,4-dimethyl-6-oxo-hexahydropyrimidin-1-yl)indane-5-carboxamide]	0.9
